By IC50 is commonly meant the concentration needed to halve the response being measured.

Where two headings read alike, the source gives them in different places. Non-standard residues stand in square brackets, D forms with d. Residues, ends and D or L forms follow the SMILES beside them. Ahx = NCCCCCC(=O)O Some results are limits rather than exact numbers.

Here are results for 21 compounds from paper PMC5401710, “Peptides with 6-Aminohexanoic Acid: Synthesis and Evaluation as Plasmin Inhibitors” (International Journal of Peptide Research and Therapeutics, 2016).

Test [1] deals with T1, plasmin (Homo sapiens, UniProt P00747).
T1 construct: The amino-terminal heavy chain of PL consists of five kringle domains; The C-terminal light chain of plasmin is a typical serine protease (SP); purchased Chromogenix (Milano, Italy)
T1 sequence (P00747 97-580 limits assumed): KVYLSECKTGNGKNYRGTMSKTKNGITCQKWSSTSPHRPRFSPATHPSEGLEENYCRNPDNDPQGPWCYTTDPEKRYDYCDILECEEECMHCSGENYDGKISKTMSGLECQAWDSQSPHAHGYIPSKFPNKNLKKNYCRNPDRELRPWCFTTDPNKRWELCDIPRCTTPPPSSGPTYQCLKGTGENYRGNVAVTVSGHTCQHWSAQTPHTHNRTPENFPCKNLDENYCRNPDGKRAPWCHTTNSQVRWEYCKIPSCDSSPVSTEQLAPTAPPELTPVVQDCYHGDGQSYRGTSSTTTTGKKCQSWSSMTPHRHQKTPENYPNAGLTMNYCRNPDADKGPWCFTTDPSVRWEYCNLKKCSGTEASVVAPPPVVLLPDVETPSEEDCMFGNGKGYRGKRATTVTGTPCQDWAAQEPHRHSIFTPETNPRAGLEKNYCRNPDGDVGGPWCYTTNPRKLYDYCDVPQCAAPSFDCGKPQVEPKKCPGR
T1 sequence (P00747 581-810 limits assumed): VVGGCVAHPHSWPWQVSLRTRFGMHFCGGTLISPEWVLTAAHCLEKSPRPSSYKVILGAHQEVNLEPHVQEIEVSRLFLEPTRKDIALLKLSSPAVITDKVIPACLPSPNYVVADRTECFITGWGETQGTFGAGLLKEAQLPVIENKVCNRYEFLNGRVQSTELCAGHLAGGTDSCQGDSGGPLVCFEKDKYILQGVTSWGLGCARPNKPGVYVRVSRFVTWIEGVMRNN
The settings on record: cited from earlier work; for inhibitory effect on plasmin activity: ref Midura-Nowaczek et al. [2003].

The target of the next test is T2, thrombin (Bos taurus, UniProt P00735).
T2 construct: purchased Lubelska Wytwórnia Szczepionek (Lublin, Poland)
The experiment in a line: Amidolytic activity of thrombin (substrate S-2238). Type of test: biochemical. The note with it: amidolytic activity, S-2238, tris buffer pH 8.4. The method, then: (§1) Determination of amidolytic activity was performed as previously described by (Okada et al. [1988]). Buffer and 0.1 ml of enzyme solution was added to 0.2 ml of examined compound dissolved in 0.15 M NaCl (1–15) (as control 0.15 M NaCl). The buffer and the enzyme solution included: • tris buffer—0.6 ml (pH 8.8), enzyme: urokinase (50 units/ml), synthetic substrate: S-2444 (0.1 ml, 3 mM); • tris buffer—0.5 ml (pH 8.4), enzyme: thrombin (1 units/ml), synthetic substrate: S-2238 (0.2 ml, 0.75 mM); • tris buffer—0.5 ml (pH 7.4), enzyme: plasmin (0.4 units/ml), synthetic substrate: S-2251 (0.2 ml, 3 mM); • […]—0.5 ml (pH 7.5), enzyme: trypsin (0.4 units/ml), synthetic substrate: Bzl-L-Arg–pNA.HCl (0.2 ml, 8 mM); • tris buffer—0.6 ml (pH 9.0), enzyme: kallikrein (3 units/ml), synthetic substrate: S-2266 (0.1 ml, 75 mM); • tris buffer—0.6 ml (pH 8.4), enzyme: t-PA ([…]), synthetic substrate: S-2288 (0.1 ml, 10 mM).
(§2) IC50 values were determined (IC50, Inhibitor Concentration, the concentration at which enzyme activity is inhibited by 50 %). Our results were compared with the 6-aminohexanoic acid.

Test [2] concerns the target T1, plasmin. Description: Amidolytic activity of plasmin (substrate S-2251). Type of test: biochemical. The note with it: amidolytic activity, S-2251, tris buffer pH 7.4. The method, then: as §1, §2
The target of another test is T3, tPA (Homo sapiens, UniProt P00750).
T3 construct: purchased Boehringer Ingelheim GmbH (Ingelheim, Germany)
T3 sequence (P00750 36-562): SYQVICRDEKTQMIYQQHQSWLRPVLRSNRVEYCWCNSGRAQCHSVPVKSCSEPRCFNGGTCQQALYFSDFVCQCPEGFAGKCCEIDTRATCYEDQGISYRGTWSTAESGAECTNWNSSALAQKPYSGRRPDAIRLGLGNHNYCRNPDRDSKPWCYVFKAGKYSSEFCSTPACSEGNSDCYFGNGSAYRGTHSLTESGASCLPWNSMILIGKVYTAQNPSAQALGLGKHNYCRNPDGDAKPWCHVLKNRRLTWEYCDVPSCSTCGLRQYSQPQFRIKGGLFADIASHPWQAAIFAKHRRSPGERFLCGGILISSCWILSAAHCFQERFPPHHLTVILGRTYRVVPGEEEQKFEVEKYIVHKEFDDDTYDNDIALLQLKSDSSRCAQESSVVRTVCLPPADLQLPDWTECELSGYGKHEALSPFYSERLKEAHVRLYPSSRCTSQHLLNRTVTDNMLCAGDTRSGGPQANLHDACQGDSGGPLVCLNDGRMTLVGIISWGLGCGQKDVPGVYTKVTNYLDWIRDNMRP
Description: Amidolytic activity of t-PA (substrate S-2288). The note with it: amidolytic activity, S-2288, tris buffer pH 8.4. It counts as biochemical. As for the experimental part:
as §1, §2

Another test addresses T4, uPA (Homo sapiens, UniProt P00749).
T4 construct: purchased Sigma (Schnelldorf, Germany)
The experiment in a line: Amidolytic activity of urokinase (substrate S-2444). Type of test: biochemical. The settings on record: amidolytic activity, S-2444, tris buffer pH 8.8. As for the experimental part: as §1, §2

The subject of a further test is trypsin. Description: Amidolytic activity of trypsin (substrate Bzl-L-Arg-pNA). It counts as biochemical. The note with it: amidolytic activity, Bzl-L-Arg-pNA, borane buffer pH 7.5. As for the experimental part: as §1, §2
Test [3] relates to fibrinolysis in whole blood. Description: Thromboelastometric (ROTEM) analysis of clot formation and fibrinolysis in whole blood. On the set-up: species or system human. The settings on record: for clotting time (CT, coagulation time) / lysis of the clot in 45 min (from LI45): human whole blood; for clotting time (CT, coagulation time): control 174 s; for lysis of the clot in 45 min (from LI45): whole blood alone about 61 %; for LOT lysis onset time (clot amplitude reduced by 15 %) / LT lysis time (clot reduced/lysed by 90 %) / LI30 lysis index, amplitude of clot after 30 min / LI45 lysis index, amplitude of clot after 45 min / LI60 lysis index, amplitude of clot after 60 min: recalcified human whole blood; for LOT lysis onset time (clot amplitude reduced by 15 %) / LT lysis time (clot reduced/lysed by 90 %): 140 ng/ml TF, 125 ng/ml tPA; for LI30 lysis index, amplitude of clot after 30 min / LI45 lysis index, amplitude of clot after 45 min / LI60 lysis index, amplitude of clot after 60 min: TF + tPA. As for the experimental part: Five healthy volunteers, men (age range: 25–34 years)) with normal blood cell counts were entered into the study. Healthy volunteers had not taken medication known to affect platelet function and/or coagulation for at least 10 days before blood sampling.
Blood was stored at room temperature for 30 min after venipuncture and then was evaluated by thromboelastometric analyses.
Thromboelastometric measurements were performed using ROTEM system (Tem International GmbH, Manheim, Germany). […] We measured the parameters characterized kinetic of clot formation (clotting time, alpha angle), clot strength (maximal clot firmness; MCF), and fibrinolysis (percentage reduction of MCF, clot lysis time).

The mark [4] stands for this setting: listed as H–Ala–Phe–Lys–EACA–NH2.
Where [5] appears, read: ref Midura-Nowaczek et al. [1990].

`CC(=O)N[C@@H](CCCCN)C(=O)NCCCCCN` [Ac–Lys–NH–(CH2)5–NH2]: the IC50 on plasmin [1] (ref Midura-Nowaczek et al. [2008]) is 8 mM.
As for `NCCCC[C@H](NC(=O)[C@@H](N)Cc1ccccc1)C(=O)NCCCCCC(=O)O` [Compound 1, H–Phe–Lys–EACA–OH] (H-Phe-Lys-[Ahx]-OH), the IC50 against thrombin is greater than 20 mM; on plasmin [2] it was 11.4 ± 0.91 mM; at tPA, greater than 20 mM; on uPA, greater than 20 mM.
Regarding `C[C@@H](N)C(=O)N[C@@H](Cc1ccccc1)C(=O)N[C@@H](CCCCN)C(=O)NCCCCCC(=O)O` [Compound 2, H–D-Ala–Phe–Lys–EACA–OH] (H-[dA]FK[Ahx]-OH), the IC50 against thrombin is 3.85 ± 0.31 mM; against plasmin [2], 3.37 ± 0.27 mM; at tPA, 14.4 ± 1.15 mM; against uPA, greater than 20 mM.
Turning to `C[C@H](N)C(=O)N[C@@H](Cc1ccccc1)C(=O)N[C@@H](CCCCN)C(=O)NCCCCCC(=O)O` [Compound 3, H–Ala–Phe–Lys–EACA–OH] (H-AFK[Ahx]-OH), the half-inhibitory concentration (IC50) at thrombin was 5.04 ± 0.4 mM; against plasmin [2] it was 4.82 ± 0.39 mM; against tPA, 17.6 ± 1.41 mM; against uPA it was greater than 20 mM.
Turning to `C[C@@H](N)C(=O)N[C@@H](Cc1ccccc1)C(=O)NCCCCCC(=O)O` [Compound 4, H–D-Ala–Phe–EACA–OH] (H-[dA]-Phe-[Ahx]-OH), the IC50 against thrombin was greater than 20 mM; on plasmin [2], 10.9 ± 0.87 mM; against tPA, 6.48 ± 0.52 mM; on uPA it was 3.17 ± 0.25 mM.
Take `C[C@H](N)C(=O)N[C@@H](Cc1ccccc1)C(=O)NCCCCCC(=O)O` [Compound 5, H–Ala–Phe–EACA–OH] (H-Ala-Phe-[Ahx]-OH): the IC50 was 4.77 ± 0.38 mM against thrombin, greater than 20 mM on plasmin [2], greater than 20 mM at tPA and 3.38 ± 0.27 mM against uPA.
As for `NCCCC[C@H](NC(=O)[C@@H](N)Cc1ccccc1)C(=O)NCCCCCC(N)=O` [Compound 6, H–Phe–Lys–EACA–NH2] (H-Phe-Lys-[Ahx]-NH2), the IC50 against thrombin was greater than 20 mM; on plasmin [2] it was 1.43 ± 0.11 mM; against tPA it was greater than 20 mM; with trypsin it was greater than 20 mM; against uPA, greater than 20 mM.
In turn, `C[C@@H](N)C(=O)N[C@@H](Cc1ccccc1)C(=O)N[C@@H](CCCCN)C(=O)NCCCCCC(N)=O` [Compound 7, H–D-Ala–Phe–Lys–EACA–NH2] (H-[dA]FK[Ahx]-NH2) came in with an IC50 on thrombin greater than 20 mM. At plasmin [2], this compound displayed an IC50 of 0.02 ± 0.0016 mM. Further, the IC50 against tPA was greater than 20 mM. Also, in test [3], the “clotting time (CT, coagulation time)” value is 115 s; the “lysis of the clot in 45 min (from LI45)” value was determined as 21%; the “LOT lysis onset time (clot amplitude reduced by 15 %)” value came out at 2519 ± 176 s; the “LT lysis time (clot reduced/lysed by 90 %)” value is listed as 72 ± 4 min. Also, in test [3], the “LI30 lysis index, amplitude of clot after 30 min” value (shortened to “LI30 lysis index, amplitude”) was 97%; the “LI45 lysis index, amplitude of clot after 45 min” value (shortened to “LI45 lysis index, amplitude”) was found to be 79%; the “LI60 lysis index, amplitude of clot after 60 min” value (shortened to “LI60 lysis index, amplitude”) is 28%. The IC50 in the test with trypsin is greater than 20 mM. The IC50 against uPA was greater than 20 mM.
At thrombin, `C[C@H](N)C(=O)N[C@@H](Cc1ccccc1)C(=O)N[C@@H](CCCCN)C(=O)NCCCCCC(N)=O` [Compound 8, H–Ala–Phe–Lys–EACA–NH2] (H-AFK[Ahx]-NH2) had an IC50 of 7.59 ± 0.61 mM. Moreover, at plasmin [2], 0.13 ± 0.01 mM corresponded to half-maximal inhibition (IC50). Moreover, the IC50 at tPA was greater than 20 mM. Besides, in test [3], the “clotting time (CT, coagulation time)” value is 135 s; the “lysis of the clot in 45 min (from LI45)” value is on record as 14%; the “LOT lysis onset time (clot amplitude reduced by 15 %)” value turned out to be 2731 s; the “LT lysis time (clot reduced/lysed by 90 %)” value is given as “about 67 min”. In test [3], the “LI30 lysis index, amplitude” value was 99%; the “LI45 lysis index, amplitude” value came to 86%; the “LI60 lysis index, amplitude” value was 43%. Also, in test [3] (setting [4]), the “LOT lysis onset time (clot amplitude reduced by 15 %)” value stood at 2731 ± 160 s and the “LT lysis time (clot reduced/lysed by 90 %)” value is on record as 76 ± 6 min. In the test on trypsin, this compound yielded an IC50 greater than 20 mM. At uPA, this compound displayed an IC50 greater than 20 mM.
On to `C[C@@H](N)C(=O)N[C@@H](Cc1ccccc1)C(=O)NCCCCCC(N)=O` [Compound 9, H–D-Ala–Phe–EACA–NH2] (H-[dA]-Phe-[Ahx]-NH2), for which the IC50 is greater than 20 mM against thrombin, 1.55 ± 0.12 mM against plasmin [2], greater than 20 mM against tPA and greater than 20 mM against uPA.
Take `C[C@H](N)C(=O)N[C@@H](Cc1ccccc1)C(=O)NCCCCCC(N)=O` [Compound 10, H–Ala–Phe–EACA–NH2] (H-Ala-Phe-[Ahx]-NH2): the IC50 is greater than 20 mM at thrombin, greater than 20 mM against plasmin [2], greater than 20 mM on tPA and 2.61 ± 0.21 mM against uPA.
As to `NCCCCCNC(=O)CCCCCNC(=O)[C@H](CCCCN)NC(=O)[C@@H](N)Cc1ccccc1` [Compound 11, H–Phe–Lys–EACA–NH–(CH2)5–NH2], the IC50 against thrombin was greater than 20 mM; on plasmin [2], 4.82 ± 0.39 mM; against tPA, greater than 20 mM; on uPA, greater than 20 mM.
`C[C@@H](N)C(=O)N[C@@H](Cc1ccccc1)C(=O)N[C@@H](CCCCN)C(=O)NCCCCCC(=O)NCCCCCN` [Compound 12, H–D-Ala–Phe–Lys–EACA–NH–(CH2)5–NH2]: the IC50 was greater than 20 mM against thrombin; 1.11 ± 0.09 mM against plasmin [2]; greater than 20 mM against tPA; greater than 20 mM in the test on trypsin; greater than 20 mM on uPA.
On to `C[C@H](N)C(=O)N[C@@H](Cc1ccccc1)C(=O)N[C@@H](CCCCN)C(=O)NCCCCCC(=O)NCCCCCN` [Compound 13, H–Ala–Phe–Lys–EACA–NH–(CH2)5–NH2], for which the IC50 on thrombin is greater than 20 mM; on plasmin [2] it was 1.4 ± 0.11 mM; against tPA, greater than 20 mM; against uPA, greater than 20 mM.
Turning to `C[C@@H](N)C(=O)N[C@@H](Cc1ccccc1)C(=O)NCCCCCC(=O)NCCCCCN` [Compound 14, H–D-Ala–Phe–EACA–NH–(CH2)5–NH2], the IC50 against thrombin is greater than 20 mM; at plasmin [2], 4.77 ± 0.38 mM; against tPA it was greater than 20 mM; on uPA it was greater than 20 mM.
`C[C@H](N)C(=O)N[C@@H](Cc1ccccc1)C(=O)NCCCCCC(=O)NCCCCCN` [Compound 15, H–Ala–Phe–EACA–NH–(CH2)5–NH2]: the IC50 at thrombin, at plasmin [2], against tPA and at uPA was greater than 20 mM throughout.
As for `NCCCCCC(N)=O` [H–EACA–NH2, reference compound], in test [3], the “clotting time (CT, coagulation time)” value came out at 117 s; the “lysis of the clot in 45 min (from LI45)” value is recorded as 20%; the “LOT lysis onset time (clot amplitude reduced by 15 %)” value is on record as 2488 ± 172 s; the “LT lysis time (clot reduced/lysed by 90 %)” value is 71 ± 5 min. In test [3], the “LI30 lysis index, amplitude” value came out at 96%; the “LI45 lysis index, amplitude” value was determined as 80%; the “LI60 lysis index, amplitude” value was determined as 32%.
Consider H-[dA]-Phe-Lys-NH2, for which, at plasmin [1] (ref Markowska et al. ([2007])), the plasmin inhibitory activity result is given as “no activity”. Also, the “inhibitory effect on plasmin activity” value on plasmin [1] is given as “completely lacked this effect”.
H–Ala–Phe–Lys–NH2: the “inhibitory effect on plasmin activity” value on plasmin [1] is on record as “completely lacked this effect”.
H–Ala–Phe–Lys–NH–(CH2)5–NH2: the plasmin inhibitory activity entry on plasmin [1] (setting [5]) is on record as “no plasmin inhibitory activity”.
Regarding H–D-Ala–Phe–Lys–NH–(CH2)5–NH2, the plasmin inhibitory activity result on plasmin [1] (setting [5]) is on record as “no activity”.
